Drawing on patent publication US11578084B2, “Condensed ring compounds having dopamine D3 receptor antagonistic effect” (Shionogi & Co., Ltd., priority 2018, dated 2023), this text covers Ki for 20 molecules.

Assay [1] concerns the target human recombinant dopamine D2 receptor (Homo sapiens (Human), UniProt P14416). Description: Test of binding inhibition for dopamine D2 receptor ([3H]-Methylspiperone SPA). Conditions: Jump-In HEK cell membranes, 1.2 nM [3H]-Methylspiperone, 120 min at 25° C.; read-out: hD2_Ki. Here is the method:
(§1) (Experimental Conditions)
Cell membranes: Jump-In HEK cell membranes expressing human recombinant dopamine D2 receptor (2 μg/well)
(§2) Non-specific ligand: (final concentration) 10 μM Butaclamol [(+)-Butaclamol Hydrochloride, D033, Sigma]
(§3) SPA beads solution: SPA beads [WGA PVT SPA Scintillation Beads, RPNQ0001 (500 mg), RPNQ0060 (2 g), PerkinElmer] (0.2 mg/well)
(§4) Incubation time and temperature: 120 min at 25° C.
(§5) Butaclamol or the compounds of the present invention were weighed and DMSO was added to make a 10 mM solution. This solution was diluted to each concentration.
(§6) SPA beads were weighed and stirred in water to make a 50 mg/mL solution. Using this solution, a mixture with the cell membranes was prepared.
Jump-In HEK Cell membranes (final reaction amount: 2 μg protein/well), the SPA beads solution (final reaction amount: 0.2 mg/well) and the buffer solution were mixed, and the mixed solution was left still for 1 hour or more at 4° C. Then, 50 μL of the mixture was added to each well of the plate. […] Non-specific binding was calculated based on the radioactivity of [^3H]-Methylspiperone in the presence of 10 μM non-labeled Butaclamol. The total binding was calculated using the radioactivity of [^3H]-Methylspiperone in the absence of the compounds of the present invention (Vehicle). The Ki values were calculated from dose-response curves.
(§7) Binding activities of the compounds of the present invention were calculated from the following Binding Inhibition Rate (%): Inhibition Rate (%)=[1−(c−a)/(b−a)]×100 • a: Average cpm of non-specific binding • b: Average cpm of total binding • c: Cpm in the presence of each test compound

The target in assay [2] is human recombinant dopamine D3 receptor (Homo sapiens (Human), UniProt P35462). The assay can be described thus: Test of binding inhibition for dopamine D3 receptor ([3H]-Methylspiperone SPA). The note with it: Jump-In HEK cell membranes, 2 nM [3H]-Methylspiperone, 120 min at 25° C.; read-out: hD3_Ki. Here is the method:
as §1
Cell membranes: Jump-In HEK cell membranes expressing human recombinant dopamine D3 receptor (4 μg/well)
as §2, §3, §4, §5
[^3H]-Methylspiperone was weighed and the buffer solution was added to make a 6 nM solution.
as §6
Jump-In HEK Cell membranes (final reaction amount: 4 μg protein/well), the SPA beads solution (final reaction amount: 0.2 mg/well) and the buffer solution were mixed and the mixed solution was left still for 1 hour or more at 4° C. Then, 50 μL of the mixture was added to each well of the plate. In addition, 25 μL of 6 nM [^3H]-Methylspiperone (final concentration: 2 nM) was added to each well. […] Non-specific binding was calculated based on the radioactivity of [^3H]-Methylspiperone in the presence of 10 μM non-labeled Butaclamol. The total binding was calculated using the radioactivity of [H]-Methylspiperone in the absence of the compounds of the present invention (vehicle). The Ki values were calculated from dose-response curves.
as §7

Chain of human recombinant dopamine D2 receptor (P14416 whole entry): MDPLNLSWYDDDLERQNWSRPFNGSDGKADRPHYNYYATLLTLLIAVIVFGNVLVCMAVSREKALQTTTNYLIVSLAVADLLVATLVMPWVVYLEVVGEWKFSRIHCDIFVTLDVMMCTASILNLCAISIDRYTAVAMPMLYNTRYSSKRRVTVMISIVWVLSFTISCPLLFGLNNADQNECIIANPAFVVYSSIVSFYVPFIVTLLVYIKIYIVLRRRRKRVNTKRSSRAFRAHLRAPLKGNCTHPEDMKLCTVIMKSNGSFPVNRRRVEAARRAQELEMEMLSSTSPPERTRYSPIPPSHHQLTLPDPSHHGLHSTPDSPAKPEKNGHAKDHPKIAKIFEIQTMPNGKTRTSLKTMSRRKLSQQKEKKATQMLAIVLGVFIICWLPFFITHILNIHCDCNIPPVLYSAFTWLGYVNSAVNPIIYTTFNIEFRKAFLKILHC
Chain of human recombinant dopamine D3 receptor (P35462 whole entry): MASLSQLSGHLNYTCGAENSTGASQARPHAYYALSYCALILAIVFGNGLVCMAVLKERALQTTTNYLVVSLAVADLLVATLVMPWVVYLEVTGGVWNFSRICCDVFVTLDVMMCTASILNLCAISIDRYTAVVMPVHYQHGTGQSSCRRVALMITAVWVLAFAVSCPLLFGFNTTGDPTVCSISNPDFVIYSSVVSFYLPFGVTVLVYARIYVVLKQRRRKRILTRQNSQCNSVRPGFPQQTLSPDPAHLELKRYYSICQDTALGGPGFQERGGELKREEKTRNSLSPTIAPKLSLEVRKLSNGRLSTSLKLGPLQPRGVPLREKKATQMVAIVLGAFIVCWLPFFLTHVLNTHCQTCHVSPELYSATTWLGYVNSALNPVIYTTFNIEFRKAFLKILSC

As for `Cc1ncc(CC(=O)N[C@H]2CC[C@H](CCN3CCc4nc(OCC(F)(F)F)sc4CC3)CC2)cn1` [Example I-110], the Ki in assay [1] was 460 nM; in assay [2] it was 0.17 nM.
Regarding `Cc1nnc(CC(=O)N[C@H]2CC[C@](F)(CCN3CCc4nc(OCCC(F)(F)F)sc4CC3)CC2)s1` [Example I-115], the values for the Ki in assay [1] and in assay [2] were more than 2200 nM and 0.63 nM, respectively.
On the same counts, the results for `Cc1ncc(/C=C/C(=O)N[C@H]2CC[C@](F)(CCN3CCc4nc(OCCC(F)(F)F)sc4CC3)CC2)cn1` [Example I-116] are more than 2200 nM and 1 nM.
As to `Cc1cnc(CC(=O)N[C@H]2CC[C@](F)(CCN3CCc4nc(OCCC(F)(F)F)sc4CC3)CC2)o1` [Example I-117], the Ki in assay [1] was more than 2200 nM; in assay [2] it was 0.55 nM.
With `Cc1cnc(OCC(=O)N[C@H]2CC[C@](F)(CCN3CCc4nc(OCCC(F)(F)F)sc4CC3)CC2)cn1` [Example I-118], the results for the Ki in assay [1] and in assay [2] were more than 2200 nM and 0.74 nM, respectively.
Regarding `C[C@@H](Oc1nc2c(s1)CCN(CC[C@H]1CC[C@H](NC(=O)COc3cnn(C)c3)CC1)CC2)C(F)(F)F` [Example I-120], the Ki in assay [1] was found to be 840 nM; in assay [2] it was 0.84 nM.
Turning to `O=C(N[C@H]1CC[C@H](CCN2CCc3ccc(OCC(F)F)nc3CC2)CC1)c1cccnc1C(F)F` [Example I-121], the Ki in assay [1] stood at 650 nM; in assay [2], 0.26 nM.
As for `Cn1c(C(=O)N[C@H]2CC[C@H](CCN3CCc4nc(OCC(F)(F)F)sc4CC3)CC2)ccc(F)c1=O` [Example I-122], the Ki worked out at 360 nM in assay [1] and 0.24 nM in assay [2].
With `Cc1nnc(CC(=O)N[C@H]2CC[C@H](CCN3CCc4nc(O[C@H](C)C(F)(F)F)sc4CC3)CC2)s1` [Example I-125], the Ki in assay [1] is 1100 nM; in assay [2], 0.61 nM.
Turning to `Cc1nnc(CC(=O)N[C@H]2CC[C@](F)(CCN3CCc4nc(O[C@H](C)C(F)(F)F)sc4CC3)CC2)s1` [Example I-126], the Ki in assay [1] was more than 2300 nM; in assay [2] it was 0.92 nM.
For `Cc1ncc(OCC(=O)N[C@H]2CC[C@H](CCN3CCc4ccc(O[C@H](C)C(F)(F)F)nc4CC3)CC2)cn1` [Example I-127], the Ki in assay [1] was 410 nM; in assay [2], 0.12 nM.
Turning to `C[C@@H](Oc1ccc2c(n1)CCN(CC[C@H]1CC[C@H](NC(=O)Cc3cnn(C)n3)CC1)CC2)C(F)(F)F` [Example I-128], the results for the Ki in assay [1] and in assay [2] were 510 nM and 0.073 nM, respectively.
Turning to `Cc1nnc(CC(=O)N[C@H]2CC[C@H](CCN3CCc4ccc(O[C@H](C)C(F)(F)F)nc4CC3)CC2)s1` [Example I-129], the Ki in assay [1] was 290 nM; in assay [2], 0.085 nM.
Regarding `Cc1nc(CC(=O)N[C@H]2CC[C@H](CCN3CCc4ccc(O[C@H](C)C(F)(F)F)nc4CC3)CC2)nn1C` [Example I-130], the Ki in assay [1] was found to be 1200 nM; in assay [2], 0.49 nM.
As for `Cc1ncc(CC(=O)N[C@H]2CC[C@H](CCN3CCc4ccc(O[C@H](C)C(F)(F)F)nc4CC3)CC2)cn1` [Example I-131], the Ki in assay [1] was determined as 410 nM; in assay [2] it was 0.35 nM.
On the same counts, the results for `C[C@@H](Oc1ccc2c(n1)CCN(CC[C@H]1CC[C@H](NC(=O)c3cccc(=O)n3C)CC1)CC2)C(F)(F)F` [Example I-132] are 300 nM and 0.12 nM.
Taken in the same sequence, the figures for `C[C@@H](Oc1ccc2c(n1)CCN(CC[C@H]1CC[C@H](NC(=O)COc3cnn(C)c3)CC1)CC2)C(F)(F)F` [Example I-133] were 190 nM and 0.15 nM.
Regarding `Cc1cnc(CC(=O)N[C@H]2CC[C@](F)(CCN3CCc4ccc(CCC(F)(F)F)nc4CC3)CC2)o1` [Example I-141], the Ki in assay [1] is more than 2300 nM; in assay [2] it was 0.41 nM.
For the molecule `Cn1ncc(CC(=O)N[C@H]2CC[C@](F)(CCN3CCc4ccc(CCC(F)(F)F)nc4CC3)CC2)n1` [Example I-144], the Ki in assay [1] was determined as 1500 nM; in assay [2], 0.32 nM.
In the case of `O=C(N[C@H]1CC[C@](F)(CCN2CCc3nc(OCC(F)(F)F)sc3CC2)CC1)c1cccnc1C(F)F` [Example I-159], the Ki was 580 nM in assay [1] and 0.36 nM in assay [2].
